Earlier results as cited in US4127523A, “Novel undecapeptides, intermediates therefor, and compositions and methods employing said undecapeptides” (priority 1977, dated 1978).

How the values were obtained:
[1] = literature
[2] = injected directly into the brain of the rat; Belluzzi et al.
[3] = system: partially purified brain opiate receptor sites; settings: literature, Bradbury et al.

H-Tyr-Gly-Gly-Phe-Met-OH [methionine enkephalin]
activity in bioassays for opiate activity [1]: very active
analgesic activity [2]: only weak analgesic agent of short duration
binding to partially purified brain opiate receptor sites [3]: binds stereo-specifically
